Experimental findings from patent publication US20160235752A1, “COMPOSITIONS, METHODS OF USE, AND METHODS OF TREATMENT” (THE UNIVERSITY OF NEW ORLEANS, priority 2013, published 2016) are described below.

In test [1] the test system is Candida albicans (ATCC no. 10231). Put plainly: MIC determination by broth microdilution (NCCLS), visual scoring. Type of test: cell-based. To be noted: for MIC80: Candida albicans, ATCC10231, read-out: MIC80 C. albicans. The procedure, abridged: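 NCCLS broth microdilution in RPMI 1640 with 10 mM HEPES, final compound 0.5–128 μg/mL, DMSO ≤1%. Inoculum from 0.5 McFarland stock diluted 1:50; incubated 35 °C for 48–72 h. MIC scored visually as lowest concentration giving ~80% growth reduction versus drug-free wells.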

For test [2], the system named is Candida glabrata (ATCC no. 48435). The description is as above. Type of test: cell-based. To be noted: for MIC80: Nakaseomyces glabratus, ATCC48435, read-out: MIC80 C. glabrata.
The mark [3] stands for this setting: Table 3, 5-Alkylated Pyrimidinetriones.
[4] abbreviates: Table 4, 5,5-Dialkylated Pyrimidinetriones.
[5] abbreviates: Table 8, N-Acylhydrazones of 5-Acylpyrimidinetriones.
The mark [6] stands for this setting: Table 5, Schiff Bases of 5-acylpyrimidinetriones.

SMILES strings stand for the structures. Values after ≈ are worked out from the molar mass of the structure shown.

Regarding `CC(C)C1C(=O)NC(=O)N(c2ccccc2)C1=O` (stereo not drawn) [BA61], the “MIC80 C. albicans” value in test [1] (setting [3]) is reported as “— (none of the 5-acyl-2,4,6-pyrimidinetriones, 5-alkylated pyrimidinetriones or the 5,5-dialkylated pyrimidinetriones showed antifungal activity through 125 μg/mL)”. The “MIC80 C. glabrata” value in test [2] (setting [3]) was “— (none of the 5-acyl-2,4,6-pyrimidinetriones, 5-alkylated pyrimidinetriones or the 5,5-dialkylated pyrimidinetriones showed antifungal activity through 125 μg/mL)”.
In the case of `O=C1NC(=O)C(C2CCCCC2)C(=O)N1` [BA62], the “MIC80 C. albicans” value in test [1] (setting [3]) is “— (none of the 5-acyl-2,4,6-pyrimidinetriones, 5-alkylated pyrimidinetriones or the 5,5-dialkylated pyrimidinetriones showed antifungal activity through 125 μg/mL)”. In addition, in test [2] (setting [3]), the “MIC80 C. glabrata” value is recorded as “— (none of the 5-acyl-2,4,6-pyrimidinetriones, 5-alkylated pyrimidinetriones or the 5,5-dialkylated pyrimidinetriones showed antifungal activity through 125 μg/mL)”.
Regarding `O=C1NC(=O)C(CCCC2CCCCC2)C(=O)N1` [BA63], in test [1] (setting [3]), the “MIC80 C. albicans” value is recorded as “— (none of the 5-acyl-2,4,6-pyrimidinetriones, 5-alkylated pyrimidinetriones or the 5,5-dialkylated pyrimidinetriones showed antifungal activity through 125 μg/mL)”. For the same compound, the “MIC80 C. glabrata” value in test [2] (setting [3]) is given as “— (none of the 5-acyl-2,4,6-pyrimidinetriones, 5-alkylated pyrimidinetriones or the 5,5-dialkylated pyrimidinetriones showed antifungal activity through 125 μg/mL)”.
Turning to `O=C1NC(=O)C(CC2CCC(O)CC2)C(=O)N1` (stereo not drawn) [BA64], the “MIC80 C. albicans” value in test [1] (setting [3]) is “— (none of the 5-acyl-2,4,6-pyrimidinetriones, 5-alkylated pyrimidinetriones or the 5,5-dialkylated pyrimidinetriones showed antifungal activity through 125 μg/mL)”. Also, the “MIC80 C. glabrata” value in test [2] (setting [3]) is “— (none of the 5-acyl-2,4,6-pyrimidinetriones, 5-alkylated pyrimidinetriones or the 5,5-dialkylated pyrimidinetriones showed antifungal activity through 125 μg/mL)”.
With `O=C1NC(=O)N(c2ccccc2)C(=O)C1CC1CCC(O)CC1` (stereo not drawn) [BA65], in test [1] (setting [3]), the “MIC80 C. albicans” value was “— (none of the 5-acyl-2,4,6-pyrimidinetriones, 5-alkylated pyrimidinetriones or the 5,5-dialkylated pyrimidinetriones showed antifungal activity through 125 μg/mL)”. The “MIC80 C. glabrata” value in test [2] (setting [3]) is reported as “— (none of the 5-acyl-2,4,6-pyrimidinetriones, 5-alkylated pyrimidinetriones or the 5,5-dialkylated pyrimidinetriones showed antifungal activity through 125 μg/mL)”.
As to `O=C1NC(=O)C(CCCc2ccccc2)C(=O)N1` [BA66], the “MIC80 C. albicans” value in test [1] (setting [3]) is “— (none of the 5-acyl-2,4,6-pyrimidinetriones, 5-alkylated pyrimidinetriones or the 5,5-dialkylated pyrimidinetriones showed antifungal activity through 125 μg/mL)”. Also, the “MIC80 C. glabrata” value in test [2] (setting [3]) is recorded as “— (none of the 5-acyl-2,4,6-pyrimidinetriones, 5-alkylated pyrimidinetriones or the 5,5-dialkylated pyrimidinetriones showed antifungal activity through 125 μg/mL)”.
Consider `CN1C(=O)C(CCCc2ccccc2)C(=O)N(C)C1=O` [BA67], for which the “MIC80 C. albicans” value in test [1] (setting [3]) is “— (none of the 5-acyl-2,4,6-pyrimidinetriones, 5-alkylated pyrimidinetriones or the 5,5-dialkylated pyrimidinetriones showed antifungal activity through 125 μg/mL)”. For the same compound, in test [2] (setting [3]), the “MIC80 C. glabrata” value was “— (none of the 5-acyl-2,4,6-pyrimidinetriones, 5-alkylated pyrimidinetriones or the 5,5-dialkylated pyrimidinetriones showed antifungal activity through 125 μg/mL)”.
For `O=C1NC(=O)C(Cc2ccc3ccccc3c2)C(=O)N1` [BA69], the “MIC80 C. albicans” value in test [1] (setting [3]) is given as “— (none of the 5-acyl-2,4,6-pyrimidinetriones, 5-alkylated pyrimidinetriones or the 5,5-dialkylated pyrimidinetriones showed antifungal activity through 125 μg/mL)”. For the same compound, the “MIC80 C. glabrata” value in test [2] (setting [3]) is “— (none of the 5-acyl-2,4,6-pyrimidinetriones, 5-alkylated pyrimidinetriones or the 5,5-dialkylated pyrimidinetriones showed antifungal activity through 125 μg/mL)”.
Turning to `O=C1NC(=O)C(Cc2ccccc2)(Cc2ccccc2)C(=O)N1` [BA70], the “MIC80 C. albicans” value in test [1] (setting [4]) is listed as “— (none of the 5-acyl-2,4,6-pyrimidinetriones, 5-alkylated pyrimidinetriones or the 5,5-dialkylated pyrimidinetriones showed antifungal activity through 125 μg/mL)”. In addition, the “MIC80 C. glabrata” value in test [2] (setting [4]) was “— (none of the 5-acyl-2,4,6-pyrimidinetriones, 5-alkylated pyrimidinetriones or the 5,5-dialkylated pyrimidinetriones showed antifungal activity through 125 μg/mL)”.
In the case of `CN(C)c1ccc(CC2(Cc3ccc(N(C)C)cc3)C(=O)NC(=O)NC2=O)cc1` [BA71], the “MIC80 C. albicans” value in test [1] (setting [4]) was “— (none of the 5-acyl-2,4,6-pyrimidinetriones, 5-alkylated pyrimidinetriones or the 5,5-dialkylated pyrimidinetriones showed antifungal activity through 125 μg/mL)”. The “MIC80 C. glabrata” value in test [2] (setting [4]) was “— (none of the 5-acyl-2,4,6-pyrimidinetriones, 5-alkylated pyrimidinetriones or the 5,5-dialkylated pyrimidinetriones showed antifungal activity through 125 μg/mL)”.
`CN(C)c1ccc(CC2(CCCc3ccccc3)C(=O)NC(=O)NC2=O)cc1` [BA72]: the “MIC80 C. albicans” value in test [1] (setting [4]) is “— (none of the 5-acyl-2,4,6-pyrimidinetriones, 5-alkylated pyrimidinetriones or the 5,5-dialkylated pyrimidinetriones showed antifungal activity through 125 μg/mL)”. The “MIC80 C. glabrata” value in test [2] (setting [4]) is recorded as “— (none of the 5-acyl-2,4,6-pyrimidinetriones, 5-alkylated pyrimidinetriones or the 5,5-dialkylated pyrimidinetriones showed antifungal activity through 125 μg/mL)”.
Turning to `CN1C(=O)C(/C=N/Nc2ccccc2)C(=O)N(C)C1=O` [BA73, 1,3-dimethyl-5-[(E)-(2-phenylhydrazinylidene)methyl]pyrimidine-2,4,6-trione], the figures for the MIC80 in test [1] and in test [2] were 4 µg/mL (≈ 14.6 µM) and 2 µg/mL (≈ 7.29 µM), respectively.
As for `O=C1NC(=O)C(/C=N/Nc2ccccc2)C(=O)N1` [BA74, 5-[(E)-(2-phenylhydrazinylidene)methyl]pyrimidine-2,4,6-trione], the figures for the MIC80 in test [1] and in test [2] were 4 µg/mL (≈ 16.2 µM) and 2 µg/mL (≈ 8.12 µM), respectively.
Consider `COC(=O)NN=C(C)C1C(=O)N(C)C(=O)N(C)C1=O` [BA75], for which the “MIC80 C. albicans” value in test [1] (setting [5]) is “— (none of the 5-acyl-2,4,6-pyrimidinetriones, 5-alkylated pyrimidinetriones or the 5,5-dialkylated pyrimidinetriones showed antifungal activity through 125 μg/mL)”. Also, in test [2] (setting [5]), the “MIC80 C. glabrata” value was “— (none of the 5-acyl-2,4,6-pyrimidinetriones, 5-alkylated pyrimidinetriones or the 5,5-dialkylated pyrimidinetriones showed antifungal activity through 125 μg/mL)”.
With `COC(=O)NN=CC1C(=O)N(C)C(=O)N(C)C1=O` [BA76], the “MIC80 C. albicans” value in test [1] (setting [5]) is “— (none of the 5-acyl-2,4,6-pyrimidinetriones, 5-alkylated pyrimidinetriones or the 5,5-dialkylated pyrimidinetriones showed antifungal activity through 125 μg/mL)”. The “MIC80 C. glabrata” value in test [2] (setting [5]) is given as “— (none of the 5-acyl-2,4,6-pyrimidinetriones, 5-alkylated pyrimidinetriones or the 5,5-dialkylated pyrimidinetriones showed antifungal activity through 125 μg/mL)”.
As for `COC(=O)NN=CC1C(=O)NC(=O)NC1=O` [BA77], the “MIC80 C. albicans” value in test [1] (setting [5]) is “— (none of the 5-acyl-2,4,6-pyrimidinetriones, 5-alkylated pyrimidinetriones or the 5,5-dialkylated pyrimidinetriones showed antifungal activity through 125 μg/mL)”. In addition, the “MIC80 C. glabrata” value in test [2] (setting [5]) is reported as “— (none of the 5-acyl-2,4,6-pyrimidinetriones, 5-alkylated pyrimidinetriones or the 5,5-dialkylated pyrimidinetriones showed antifungal activity through 125 μg/mL)”.
As for `CN1C(=O)C(C=Nc2ccc(O)cc2)C(=O)N(C)C1=O` [BA79], in test [1] (setting [6]), the “MIC80 C. albicans” value is “— (none of the 5-acyl-2,4,6-pyrimidinetriones, 5-alkylated pyrimidinetriones or the 5,5-dialkylated pyrimidinetriones showed antifungal activity through 125 μg/mL)”. For the same compound, the “MIC80 C. glabrata” value in test [2] (setting [6]) is “— (none of the 5-acyl-2,4,6-pyrimidinetriones, 5-alkylated pyrimidinetriones or the 5,5-dialkylated pyrimidinetriones showed antifungal activity through 125 μg/mL)”.
As for `CC(=Nc1ccc(O)cc1)C1C(=O)N(C)C(=O)N(C)C1=O` [BA80], the “MIC80 C. albicans” value in test [1] (setting [6]) was “— (none of the 5-acyl-2,4,6-pyrimidinetriones, 5-alkylated pyrimidinetriones or the 5,5-dialkylated pyrimidinetriones showed antifungal activity through 125 μg/mL)”. Also, in test [2] (setting [6]), the “MIC80 C. glabrata” value is given as “— (none of the 5-acyl-2,4,6-pyrimidinetriones, 5-alkylated pyrimidinetriones or the 5,5-dialkylated pyrimidinetriones showed antifungal activity through 125 μg/mL)”.
